Source: PMC4053474 (Bioconjugate chemistry, 2008)
Blank lines part the entries; values can stand above or below the compound they belong to.

Key:
[1] = test system: Integrin αVβ6-positive H2009 cells; assay: cell viability assay; type: cell-based, human; conditions: 200 nM to 5 µM, 24 h exposure, 72 h post-incubation, CellTiter Glo
[2] = test system: Integrin αVβ6-positive H2009 cells; assay: flow cytometric analysis of doxorubicin uptake; type: cell-based, human; conditions: 30 µM, 2 h, flow cytometry
H2009 cells = conditions: ref personal communication, Drs. John D. Minna and Michael Peyton; cited from earlier work
αvβ6 = αvβ6 (Homo sapiens, UniProt P06756+P18564); assay: binding affinity for integrin αvβ6; conditions: data not shown
Sequence of αvβ6 (P06756 31-889 limits assumed): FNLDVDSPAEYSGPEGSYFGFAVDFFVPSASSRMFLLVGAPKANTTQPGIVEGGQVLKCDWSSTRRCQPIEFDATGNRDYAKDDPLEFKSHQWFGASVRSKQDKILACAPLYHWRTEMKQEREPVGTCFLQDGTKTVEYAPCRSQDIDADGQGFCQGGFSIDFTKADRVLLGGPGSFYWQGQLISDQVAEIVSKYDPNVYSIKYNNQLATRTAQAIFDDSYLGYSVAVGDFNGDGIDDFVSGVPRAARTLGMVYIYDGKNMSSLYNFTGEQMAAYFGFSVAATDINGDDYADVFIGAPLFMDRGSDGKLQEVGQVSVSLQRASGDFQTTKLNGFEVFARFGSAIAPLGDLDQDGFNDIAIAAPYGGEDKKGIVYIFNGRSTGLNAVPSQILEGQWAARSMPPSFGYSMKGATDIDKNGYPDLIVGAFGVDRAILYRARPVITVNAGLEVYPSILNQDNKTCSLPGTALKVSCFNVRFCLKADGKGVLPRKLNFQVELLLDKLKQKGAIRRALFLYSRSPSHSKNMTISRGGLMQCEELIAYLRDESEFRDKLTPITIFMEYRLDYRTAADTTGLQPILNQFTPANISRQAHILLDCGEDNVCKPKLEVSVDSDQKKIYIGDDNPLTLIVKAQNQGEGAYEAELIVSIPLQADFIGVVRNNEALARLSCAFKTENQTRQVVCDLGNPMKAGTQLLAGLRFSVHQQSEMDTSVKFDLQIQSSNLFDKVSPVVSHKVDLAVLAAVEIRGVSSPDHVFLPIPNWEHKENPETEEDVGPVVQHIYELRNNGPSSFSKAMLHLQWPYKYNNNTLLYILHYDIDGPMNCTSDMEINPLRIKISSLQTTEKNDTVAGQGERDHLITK
Sequence of αvβ6 (P06756 891-1048 partner limits assumed): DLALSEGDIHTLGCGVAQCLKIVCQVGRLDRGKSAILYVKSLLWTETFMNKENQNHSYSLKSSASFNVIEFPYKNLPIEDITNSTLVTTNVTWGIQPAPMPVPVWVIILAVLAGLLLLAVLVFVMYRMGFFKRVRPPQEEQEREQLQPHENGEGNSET
Sequence of αvβ6 (P18564 22-788): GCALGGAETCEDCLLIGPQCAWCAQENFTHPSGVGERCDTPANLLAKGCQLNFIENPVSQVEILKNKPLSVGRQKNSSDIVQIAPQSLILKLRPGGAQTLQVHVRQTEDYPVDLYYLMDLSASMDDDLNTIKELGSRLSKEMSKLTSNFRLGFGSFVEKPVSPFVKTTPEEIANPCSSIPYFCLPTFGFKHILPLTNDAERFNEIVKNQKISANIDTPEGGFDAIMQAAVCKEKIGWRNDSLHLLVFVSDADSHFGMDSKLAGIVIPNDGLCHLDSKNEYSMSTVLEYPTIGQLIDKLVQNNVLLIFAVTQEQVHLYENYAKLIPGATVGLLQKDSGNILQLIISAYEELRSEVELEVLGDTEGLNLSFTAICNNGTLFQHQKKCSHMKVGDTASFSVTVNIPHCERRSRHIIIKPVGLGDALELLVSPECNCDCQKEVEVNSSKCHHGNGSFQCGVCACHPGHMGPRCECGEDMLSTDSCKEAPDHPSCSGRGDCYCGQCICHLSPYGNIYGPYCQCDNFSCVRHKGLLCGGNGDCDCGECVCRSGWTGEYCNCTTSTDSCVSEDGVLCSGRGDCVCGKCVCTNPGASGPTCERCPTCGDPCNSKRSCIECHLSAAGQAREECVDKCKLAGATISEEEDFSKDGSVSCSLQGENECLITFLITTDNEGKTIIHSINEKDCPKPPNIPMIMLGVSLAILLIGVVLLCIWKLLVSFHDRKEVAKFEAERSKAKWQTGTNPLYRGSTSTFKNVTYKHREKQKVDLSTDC

Compound: COc1cccc2c1C(=O)c1c(O)c3c(c(O)c1C2=O)C[C@@](O)(C(=O)CO)C[C@@H]3O[C@H]1C[C@H](N)[C@H](O)[C@H](C)O1 [doxorubicin, reference compound]
- pairwise comparison of viability of H2009 and H1299 cells [1]: did not demonstrate any statistical difference
- internalization into H2009 compared with H1299 cells [2]: internalizes into both cell lines equally

Compound: CC(=O)O[C@H]1C(=O)[C@@]2(C)[C@H]([C@H](OC(=O)c3ccccc3)[C@]3(O)C[C@H](OC(=O)[C@H](O)[C@@H](NC(=O)c4ccccc4)c4ccccc4)C(C)=C1C3(C)C)[C@]1(OC(C)=O)CO[C@@H]1C[C@@H]2O [paclitaxel]
- IC50 relative to that of doxorubicin (fold lower) (H2009 cells): 40 fold

- binding affinity for αvβ6 (αvβ6): no binding affinity
Compound: DALRLQGTLR [scrambled sequence peptide]
